Laboratory results: ChEMBL document CHEMBL1137840, “A novel cyclic enkephalin analogue with potent opioid antagonist activity” (Bioorg Med Chem Lett, 2004)

What was measured:
[1] = biological target: Kappa-type opioid receptor (Cavia porcellus) (UniProt P41144); test: Binding potency towards Kappa opioid receptor of guinea pig ileum; type: tissue-based
[2] = biological target: Mu-type opioid receptor (Cavia porcellus) (UniProt P97266); test: Binding potency towards Mu opioid receptor of guinea pig ileum; type: tissue-based
Mu-type opioid receptor (Cavia porcellus), sequence (P97266 whole entry): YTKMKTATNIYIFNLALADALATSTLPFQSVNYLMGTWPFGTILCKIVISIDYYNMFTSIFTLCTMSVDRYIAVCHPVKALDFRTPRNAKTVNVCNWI

[3] = biological target: Delta-type opioid receptor (Mus musculus) (UniProt P32300); test: Binding potency towards Delta opioid receptor of mouse vas deferens; type: tissue-based
Delta-type opioid receptor (Mus musculus), sequence (P32300 whole entry): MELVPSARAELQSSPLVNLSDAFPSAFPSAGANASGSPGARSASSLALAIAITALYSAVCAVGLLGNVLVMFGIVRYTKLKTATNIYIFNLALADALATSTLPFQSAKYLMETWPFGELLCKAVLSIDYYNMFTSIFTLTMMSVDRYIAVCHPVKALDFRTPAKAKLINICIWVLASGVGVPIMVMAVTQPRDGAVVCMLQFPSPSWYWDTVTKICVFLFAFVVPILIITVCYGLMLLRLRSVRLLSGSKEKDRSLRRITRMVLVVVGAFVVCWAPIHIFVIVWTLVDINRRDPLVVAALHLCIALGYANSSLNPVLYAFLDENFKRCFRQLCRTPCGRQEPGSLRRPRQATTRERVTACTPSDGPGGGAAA

[4] = Binding affinity towards Opioid receptor mu 1
[5] = Binding affinity towards Kappa opioid receptor
[6] = Binding affinity towards Mu opioid receptor
[7] = biological target: Kappa-type opioid receptor (Cavia porcellus, UniProt P41144); test: Inhibitory concentration against Kappa opioid receptor of guinea pig ileum; type: tissue-based
Kappa-type opioid receptor, sequence (P41144 whole entry): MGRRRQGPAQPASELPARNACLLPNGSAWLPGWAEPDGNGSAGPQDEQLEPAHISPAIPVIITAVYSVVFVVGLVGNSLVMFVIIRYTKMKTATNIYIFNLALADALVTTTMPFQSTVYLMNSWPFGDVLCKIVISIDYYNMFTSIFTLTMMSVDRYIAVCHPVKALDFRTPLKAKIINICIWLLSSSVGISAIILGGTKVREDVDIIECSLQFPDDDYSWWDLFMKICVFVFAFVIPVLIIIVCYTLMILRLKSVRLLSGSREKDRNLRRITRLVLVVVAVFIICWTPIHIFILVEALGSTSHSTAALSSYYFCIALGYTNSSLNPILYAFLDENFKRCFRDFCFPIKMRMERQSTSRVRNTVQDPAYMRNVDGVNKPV

Kappa-type opioid receptor (Cavia porcellus), sequence (P41144 whole entry): as above

With Cc1cc(O)cc(C)c1[C@@H](C)CC(=O)N[C@H]1CSSC[C@H](C(N)=O)NC(=O)[C@H](Cc2ccc([N+](=O)[O-])cc2)NC(=O)CNC1=O the Ke [1] was 5.81 nM, the Ke [2] was 1.4 nM and the Ke [3] was 55 nM. For the same compound, the Ki [4] was 2.1 nM and the Ki [5] was 49.5 nM.

Cc1cc(O)cc(C)c1CCC(=O)N[C@H]1CSSC[C@H](C(N)=O)NC(=O)[C@H](Cc2ccc([N+](=O)[O-])cc2)NC(=O)CNC1=O showed a Ke [1] of 22.6 nM, a Ke [2] of 3.68 nM and a Ke [3] of 63.3 nM. The Ki [6] was 4.79 nM and the Ki [5] was 299 nM.

Compound Cc1cc(O)cc(C)c1C[C@H](N)C(=O)N[C@@H]1CSSC[C@H](C(N)=O)NC(=O)[C@H](Cc2ccc([N+](=O)[O-])cc2)NC(=O)CNC1=O has an IC50 [7] of 0.54 nM, a Ki [6] of 0.24 nM and a Ki [5] of 3.77 nM.

In the case of Cc1cc(O)cc(C)c1[C@H](C)CC(=O)N[C@H]1CSSC[C@H](C(N)=O)NC(=O)[C@H](Cc2ccc([N+](=O)[O-])cc2)NC(=O)CNC1=O, the Ke [1] is reported as 1630 nM, the Ke [2] is reported as 845 nM and the Ke [3] is reported as 3280 nM. The Ki [6] was 94.4 nM and the Ki [5] was 6970 nM.
